Paper PMC12121777 (PLOS One, 2025)
Values after ≈ are worked out from the molar mass of the structure shown. Like-named read-outs stand apart in the source and are kept apart here.

Columns and labels:
[1] = test system: Mycobacterium avium 330/88; test: MIC, micro method in Šula's semisynthetic medium, M. avium; assay type: cell-based
[2] = test system: HepG2 cells; test: Cytotoxicity on HepG2 cell line (CellTiter 96); assay type: cell-based, human; details: for IC50: Homo sapiens, HepG2, 24 h, read-out: IC50 HepG2
[3] = test system: Mtb 331/88 (i.e., H37Rv); test: MIC, micro method in Šula's semisynthetic medium, drug-susceptible Mtb; assay type: cell-based, Mycobacterium tuberculosis; details: for MIC: Mycobacterium tuberculosis, H37RV
[4] = test system: Mycobacterium kansasii 6509/96; test: MIC, micro method in Šula's semisynthetic medium, M. kansasii clinical isolate; assay type: cell-based; details: read-out: MIC M. kansasii 6509/96
[5] = 330/88, 336 h, read-out: MIC M. avium 330/88
[6] = 330/88, 504 h, read-out: MIC M. avium 330/88

Row | SMILES | MIC [1, 5] | MIC [1, 6] | IC50 [2] | MIC ([3]; 336 h, 14 days) | MIC ([3]; 504 h, 21 days) | MIC ([4]; 6509/96, 168 h) | MIC ([4]; 6509/96, 336 h) | MIC ([4]; 6509/96, 504 h) | MIC ([1]; 330/88, read-out: MIC M. avium) | selectivity (SI) for M. avium ([2]; ratio of IC50 (HepG2) to MIC) | fold more potent than precursor 4 against Mtb ([3]; oxadiazole 5 vs hydrazinecarboxamide 4 counterpart)
1 | CCCCCCCCCNc1nnc(-c2cc([N+](=O)[O-])cc([N+](=O)[O-])c2)o1 [Compound 5i, 5-(3,5-Dinitrophenyl)-N-nonyl-1,3,4-oxadiazol-2-amine] | 8 µM (≈ 3.02 µg/mL) | 16 µM (≈ 6.04 µg/mL) | > 100 µM | 0.06 µM (≈ 0.0226 µg/mL) | 0.06 µM (≈ 0.0226 µg/mL) | ≤ 0.03 µM | 0.06 µM (≈ 0.0226 µg/mL) | 0.06 µM (≈ 0.0226 µg/mL) | – | – | –
2 | CNC(=O)NNC(=O)c1cc([N+](=O)[O-])cc([N+](=O)[O-])c1 [Compound 4a, 2-(3,5-Dinitrobenzoyl)-N-methylhydrazine-1-carboxamide] | 1000 µM (≈ 283 µg/mL) | 1000 µM (≈ 283 µg/mL) | – | > 32 µM | > 32 µM | 250 µM (≈ 70.8 µg/mL) | 500 µM (≈ 142 µg/mL) | 500 µM (≈ 142 µg/mL) | – | – | –
3 | CCCCCCCCCCNC(=O)NNC(=O)c1cc([N+](=O)[O-])cc([N+](=O)[O-])c1 [Compound 4j, N-Decyl-2-(3,5-dinitrobenzoyl)hydrazine-1-carboxamide] | > 500 µM | > 500 µM | 141 µM | 1 µM (≈ 0.409 µg/mL) | 1 µM (≈ 0.409 µg/mL) | 1 µM (≈ 0.409 µg/mL) | 2 µM (≈ 0.819 µg/mL) | 4 µM (≈ 1.64 µg/mL) | – | – | –
4 | COc1ccc(CNc2nnc(-c3cc([N+](=O)[O-])cc([N+](=O)[O-])c3)s2)cc1 [Compound 8b, 5-(3,5-Dinitrophenyl)-N-(4-methoxybenzyl)-1,3,4-thiadiazol-2-amine] | 4 µM (≈ 1.55 µg/mL) | 4 µM (≈ 1.55 µg/mL) | – | ≤ 0.03 µM | ≤ 0.03 µM | 0.06 µM (≈ 0.0232 µg/mL) | 0.06 µM (≈ 0.0232 µg/mL) | 0.125 µM (≈ 0.0484 µg/mL) | – | – | –
5 | CCCCCCCCCCCCCNC(=O)NNC(=O)c1cc([N+](=O)[O-])cc([N+](=O)[O-])c1 [Compound 4m, 2-(3,5-Dinitrobenzoyl)-N-tridecylhydrazine-1-carboxamide] | > 500 µM | > 500 µM | 163 µM | 2 µM (≈ 0.903 µg/mL) | 4 µM (≈ 1.81 µg/mL) | 2 µM (≈ 0.903 µg/mL) | 2 µM (≈ 0.903 µg/mL) | 4 µM (≈ 1.81 µg/mL) | – | – | –
6 | CCCCCCCCCCCCCCCCCCNc1nnc(-c2cc([N+](=O)[O-])cc([N+](=O)[O-])c2)o1 [Compound 5r, 5-(3,5-Dinitrophenyl)-N-octadecyl-1,3,4-oxadiazol-2-amine] | > 1000 µM | > 1000 µM | – | > 32 µM | > 32 µM | 64 µM (≈ 32.2 µg/mL) | 64 µM (≈ 32.2 µg/mL) | 64 µM (≈ 32.2 µg/mL) | > 1000 µM | – | –
7 | CCCNc1nnc(-c2cc([N+](=O)[O-])cc([N+](=O)[O-])c2)o1 [Compound 5c, 5-(3,5-Dinitrophenyl)-N-propyl-1,3,4-oxadiazol-2-amine] | > 500 µM | > 500 µM | – | 4 µM (≈ 1.17 µg/mL) | 4 µM (≈ 1.17 µg/mL) | 4 µM (≈ 1.17 µg/mL) | 8 µM (≈ 2.35 µg/mL) | 16 µM (≈ 4.69 µg/mL) | – | – | –
8 | CCCCCCNc1nnc(-c2cc([N+](=O)[O-])cc([N+](=O)[O-])c2)o1 [Compound 5f, 5-(3,5-Dinitrophenyl)-N-hexyl-1,3,4-oxadiazol-2-amine] | ≤ 1 µM | ≤ 1 µM | > 100 µM | ≤ 0.03 µM | ≤ 0.03 µM | 0.25 µM (≈ 0.0838 µg/mL) | 0.5 µM (≈ 0.168 µg/mL) | 0.5 µM (≈ 0.168 µg/mL) | 1 µM (≈ 0.335 µg/mL) | > 100 | ≥ 33.3 fold
9 | CCNC(=O)NNC(=O)c1cc([N+](=O)[O-])cc([N+](=O)[O-])c1 [Compound 4b, 2-(3,5-Dinitrobenzoyl)-N-ethylhydrazine-1-carboxamide] | 1000 µM (≈ 297 µg/mL) | 1000 µM (≈ 297 µg/mL) | – | 32 µM (≈ 9.51 µg/mL) | > 32 µM | 64 µM (≈ 19 µg/mL) | 125 µM (≈ 37.2 µg/mL) | 125 µM (≈ 37.2 µg/mL) | – | – | –
10 | CCCCCCCCCCCCCCCCCNc1nnc(-c2cc([N+](=O)[O-])cc([N+](=O)[O-])c2)o1 [Compound 5q, 5-(3,5-Dinitrophenyl)-N-heptadecyl-1,3,4-oxadiazol-2-amine] | 32 µM (≈ 15.7 µg/mL) | 64 µM (≈ 31.3 µg/mL) | – | 32 µM (≈ 15.7 µg/mL) | > 32 µM | 8 µM (≈ 3.92 µg/mL) | 16 µM (≈ 7.83 µg/mL) | 32 µM (≈ 15.7 µg/mL) | – | – | –
11 | CCCNC(=O)NNC(=O)c1cc([N+](=O)[O-])cc([N+](=O)[O-])c1 [Compound 4c, 2-(3,5-Dinitrobenzoyl)-N-propylhydrazine-1-carboxamide] | 1000 µM (≈ 311 µg/mL) | 1000 µM (≈ 311 µg/mL) | – | 16 µM (≈ 4.98 µg/mL) | 16 µM (≈ 4.98 µg/mL) | 8 µM (≈ 2.49 µg/mL) | 16 µM (≈ 4.98 µg/mL) | 16 µM (≈ 4.98 µg/mL) | – | – | –
12 | O=[N+]([O-])c1cc(-c2nnc(NCc3ccc(Cl)cc3Cl)o2)cc([N+](=O)[O-])c1 [Compound 7d, N-(2,4-Dichlorobenzyl)-5-(3,5-dinitrophenyl)-1,3,4-oxadiazol-2-amine] | 1 µM (≈ 0.41 µg/mL) | 1 µM (≈ 0.41 µg/mL) | – | 0.06 µM (≈ 0.0246 µg/mL) | 0.125 µM (≈ 0.0513 µg/mL) | 0.06 µM (≈ 0.0246 µg/mL) | 0.125 µM (≈ 0.0513 µg/mL) | 0.125 µM (≈ 0.0513 µg/mL) | – | – | –
